# Measured values published in US9920010B2, “CXCR7 receptor modulators” (IDORSIA PHARMACEUTICALS LTD, priority 2013, dated 2018).
# Target: T1, CXCR7 (Homo sapiens, UniProt P25106)
# T1 construct: host or cells: CHO-K1 (PathHunter CHO-K1 CXCR7 b-arrestin cell line, stably transfected)
# Assay: PathHunter CHO-K1 CXCR7 b-arrestin recruitment assay (CXCR7 agonistic activity)
# Assay type: cell-based
# Details: PathHunter CHO-K1 CXCR7 b-arrestin cell line
# Outline: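 Stable CHO-K1 line with C-terminally ProLink-tagged CXCR7 and β-arrestin 2–EA fusion; β-arrestin recruitment restores β-gal activity, read by chemiluminescence after 1 h RT detection. Cells seeded 24 h, starved in OPTIMEM 3–4 h, exposed to compounds 90 min at 37 °C in HBSS/HEPES/BSA. Geometric-mean EC50 from repeated measurements.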
# T1 sequence (P25106 whole entry): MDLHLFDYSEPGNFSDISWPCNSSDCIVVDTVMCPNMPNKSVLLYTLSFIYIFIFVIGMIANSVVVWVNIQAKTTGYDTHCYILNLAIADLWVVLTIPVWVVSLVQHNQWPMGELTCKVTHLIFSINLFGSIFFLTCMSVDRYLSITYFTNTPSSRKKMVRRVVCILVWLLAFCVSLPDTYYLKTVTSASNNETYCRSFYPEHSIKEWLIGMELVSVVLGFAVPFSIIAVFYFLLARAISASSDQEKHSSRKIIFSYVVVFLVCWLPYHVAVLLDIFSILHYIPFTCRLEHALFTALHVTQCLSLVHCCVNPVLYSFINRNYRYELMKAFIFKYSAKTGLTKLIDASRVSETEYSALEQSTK
# T1 sequence (P32121 whole entry partner): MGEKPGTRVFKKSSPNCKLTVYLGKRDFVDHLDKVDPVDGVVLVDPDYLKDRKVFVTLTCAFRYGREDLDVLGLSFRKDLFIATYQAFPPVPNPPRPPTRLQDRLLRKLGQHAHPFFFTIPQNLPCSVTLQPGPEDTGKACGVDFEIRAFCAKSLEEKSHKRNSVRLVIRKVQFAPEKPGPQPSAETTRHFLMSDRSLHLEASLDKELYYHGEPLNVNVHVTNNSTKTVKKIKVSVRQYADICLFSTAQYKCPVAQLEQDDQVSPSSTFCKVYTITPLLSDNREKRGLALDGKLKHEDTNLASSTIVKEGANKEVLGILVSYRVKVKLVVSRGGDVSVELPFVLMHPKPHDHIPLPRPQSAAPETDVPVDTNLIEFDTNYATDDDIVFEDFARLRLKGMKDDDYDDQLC
row,SMILES,EC50 [nM]
1,"CN1CCC(N(Cc2ccccc2C(F)(F)F)C(=O)CNc2cccc3c2CCN(C(=O)OC(C)(C)C)C3)CC1 [Example 10, 5-({[(1-Methyl-piperidin-4-yl)-(2-trifluoromethyl-benzyl)-carbamoyl]-methyl}-amino)-3,4-dihydro-1H-isoquinoline-2-carboxylic acid tert-butyl ester]",337
2,"CCC(=O)N1CCc2c(cccc2NCC(=O)N(CCC(C)C)Cc2ccccc2)C1 [Example 12, N-Benzyl-N-(3-methyl-butyl)-2-(2-propionyl-1,2,3,4-tetrahydro-isoquinolin-5-ylamino)-acetamide]",194
3,"CCC(=O)N1CCc2c(cccc2NCC(=O)N(CCCN(C)C)Cc2ccccc2)C1 [Example 13, N-Benzyl-N-(3-dimethylamino-propyl)-2-(2-propionyl-1,2,3,4-tetrahydro-isoquinolin-5-ylamino)-acetamide]",37
4,"CCC(=O)N1CCc2c(cccc2NCC(=O)N(CCN(C)C)Cc2cccc(C)c2)C1 [Example 14, N-(2-Dimethylamino-ethyl)-N-(3-methyl-benzyl)-2-(2-propionyl-1,2,3,4-tetrahydro-isoquinolin-5-ylamino)-acetamide]",53
5,"CCC(=O)N1CCc2c(cccc2NCC(=O)N(CCN(C)C)Cc2ccccc2C)C1 [Example 15, N-(2-Dimethylamino-ethyl)-N-(2-methyl-benzyl)-2-(2-propionyl-1,2,3,4-tetrahydro-isoquinolin-5-ylamino)-acetamide]",15
6,"CCC(=O)N1CCc2c(cccc2NCC(=O)N(CCN(C)C)Cc2ccc(C)cc2)C1 [Example 16, N-(2-Dimethylamino-ethyl)-N-(4-methyl-benzyl)-2-(2-propionyl-1,2,3,4-tetrahydro-isoquinolin-5-ylamino)-acetamide]",63
7,"CCC(=O)N1CCc2c(cccc2NCC(=O)N(CCc2ccccc2)CCN(C)C)C1 [Example 17, N-(2-Dimethylamino-ethyl)-N-phenethyl-2-(2-propionyl-1,2,3,4-tetrahydro-isoquinolin-5-ylamino)-acetamide]",135
8,"CCC(=O)N1CCc2c(cccc2NCC(=O)N(CCN(C)C)Cc2cccc(Cl)c2)C1 [Example 18, N-(3-Chloro-benzyl)-N-(2-dimethylamino-ethyl)-2-(2-propionyl-1,2,3,4-tetrahydro-isoquinolin-5-ylamino)-acetamide]",61
9,"CCC(=O)N1CCc2c(cccc2NCC(=O)N(CCN(C)C)Cc2ccc(Cl)cc2)C1 [Example 19, N-(4-Chloro-benzyl)-N-(2-dimethylamino-ethyl)-2-(2-propionyl-1,2,3,4-tetrahydro-isoquinolin-5-ylamino)-acetamide]",102
10,"CCC(=O)N1CCc2c(cccc2NCC(=O)N(CCN(C)C)Cc2ccccc2Cl)C1 [Example 20, N-(2-Chloro-benzyl)-N-(2-dimethylamino-ethyl)-2-(2-propionyl-1,2,3,4-tetrahydro-isoquinolin-5-ylamino)-acetamide]",11
11,"CCC(=O)N1CCc2c(cccc2NCC(=O)N(CCN(C)C)Cc2cccc(F)c2)C1 [Example 21, N-(2-Dimethylamino-ethyl)-N-(3-fluoro-benzyl)-2-(2-propionyl-1,2,3,4-tetrahydro-isoquinolin-5-ylamino)-acetamide]",39
12,"CCC(=O)N1CCc2c(cccc2NCC(=O)N(CCN(C)C)Cc2ccc(F)cc2)C1 [Example 22, N-(2-Dimethylamino-ethyl)-N-(4-fluoro-benzyl)-2-(2-propionyl-1,2,3,4-tetrahydro-isoquinolin-5-ylamino)-acetamide]",80
13,"CCC(=O)N1CCc2c(cccc2NCC(=O)N(CCN(C)C)Cc2ccccc2F)C1 [Example 23, N-(2-Dimethylamino-ethyl)-N-(2-fluoro-benzyl)-2-(2-propionyl-1,2,3,4-tetrahydro-isoquinolin-5-ylamino)-acetamide]",16
14,"CCC(=O)N1CCc2c(cccc2NCC(=O)N(CCN2CCCC2)Cc2ccccc2)C1 [Example 24, N-Benzyl-2-(2-propionyl-1,2,3,4-tetrahydro-isoquinolin-5-ylamino)-N-(2-pyrrolidin-1-yl-ethyl)-acetamide]",28
15,"CCC(=O)N1CCc2c(cccc2NCC(=O)N(Cc2ccccc2)Cc2ccccn2)C1 [Example 25, N-Benzyl-2-(2-propionyl-1,2,3,4-tetrahydro-isoquinolin-5-ylamino)-N-pyridin-2-ylmethyl-acetamide]",309
16,"CCC(=O)N1CCc2c(cccc2NCC(=O)N(Cc2ccccc2)Cc2nccn2C)C1 [Example 26, N-Benzyl-N-(1-methyl-1H-imidazol-2-ylmethyl)-2-(2-propionyl-1,2,3,4-tetrahydro-isoquinolin-5-ylamino)-acetamide]",442
17,"CCC(=O)N1CCc2c(cccc2NCC(=O)N(CCN(CC)CC)Cc2ccccc2)C1 [Example 27, N-Benzyl-N-(2-diethylamino-ethyl)-2-(2-propionyl-1,2,3,4-tetrahydro-isoquinolin-5-ylamino)-acetamide]",19

row,SMILES,EC50 [nM]
1,"CCC(=O)N1CCc2c(cccc2NCC(=O)N(CCN(C)C)Cc2ccccc2OC)C1 [Example 28, N-(2-Dimethylamino-ethyl)-N-(2-methoxy-benzyl)-2-(2-propionyl-1,2,3,4-tetrahydro-isoquinolin-5-ylamino)-acetamide]",63
2,"CCC(=O)N1CCc2c(cccc2NCC(=O)N(CCN(C)C)Cc2cccc(OC)c2)C1 [Example 29, N-(2-Dimethylamino-ethyl)-N-(3-methoxy-benzyl)-2-(2-propionyl-1,2,3,4-tetrahydro-isoquinolin-5-ylamino)-acetamide]",174
3,"CCC(=O)N1CCc2c(cccc2NCC(=O)N(CCN(C)C)Cc2ccc(OC)cc2)C1 [Example 30, N-(2-Dimethylamino-ethyl)-N-(4-methoxy-benzyl)-2-(2-propionyl-1,2,3,4-tetrahydro-isoquinolin-5-ylamino)-acetamide]",283
4,"CCCCN(C)CCN(Cc1ccccc1)C(=O)CNc1cccc2c1CCN(C(=O)CC)C2 [Example 31, N-Benzyl-N-[2-(butyl-methyl-amino)-ethyl]-2-(2-propionyl-1,2,3,4-tetrahydro-isoquinolin-5-ylamino)-acetamide]",13
5,"CCC(=O)N1CCc2c(cccc2NCC(=O)N(CCN(C)C)Cc2cccc(C(F)(F)F)c2)C1 [Example 33, N-(2-Dimethylamino-ethyl)-2-(2-propionyl-1,2,3,4-tetrahydro-isoquinolin-5-ylamino)-N-(3-trifluoromethyl-benzyl)-acetamide]",16
6,"CCC(=O)N1CCc2c(cccc2NCC(=O)N(CCN(C)C)Cc2ccc(C(F)(F)F)cc2)C1 [Example 34, N-(2-Dimethylamino-ethyl)-2-(2-propionyl-1,2,3,4-tetrahydro-isoquinolin-5-ylamino)-N-(4-trifluoromethyl-benzyl)-acetamide]",132
7,"CCC(=O)N1CCc2c(cccc2NCC(=O)N(CCN(C)C)Cc2ccccc2C(F)(F)F)C1 [Example 35, N-(2-Dimethylamino-ethyl)-2-(2-propionyl-1,2,3,4-tetrahydro-isoquinolin-5-ylamino)-N-(2-trifluoromethyl-benzyl)-acetamide]",4
8,"CN(C)CCN(CCc1ccccc1)C(=O)CNc1cccc2c1CCN(CC1CC1)C2 [Example 36, 2-(2-Cyclopropylmethyl-1,2,3,4-tetrahydro-isoquinolin-5-ylamino)-N-(2-dimethylamino-ethyl)-N-phenethyl-acetamide]",25
9,"CN(C)CCCN(Cc1ccccc1)C(=O)CNc1cccc2c1CCN(CC1CC1)C2 [Example 37, N-Benzyl-2-(2-cyclopropylmethyl-1,2,3,4-tetrahydro-isoquinolin-5-ylamino)-N-(3-dimethylamino-propyl)-acetamide]",4
10,"CN(C)CCN(Cc1ccccc1F)C(=O)CNc1cccc2c1CCN(CC1CC1)C2 [Example 38, 2-(2-Cyclopropylmethyl-1,2,3,4-tetrahydro-isoquinolin-5-ylamino)-N-(2-dimethylamino-ethyl)-N-(2-fluoro-benzyl)-acetamide]",3
11,"CN(C)CCN(Cc1ncccc1Cl)C(=O)CNc1cccc2c1CCN(CC1CC1)C2 [Example 39, N-(3-Chloro-pyridin-2-ylmethyl)-2-(2-cyclopropylmethyl-1,2,3,4-tetrahydro-isoquinolin-5-ylamino)-N-(2-dimethylamino-ethyl)-acetamide]",4
12,"Cc1ccccc1CCN(CCN(C)C)C(=O)CNc1cccc2c1CCN(CC1CC1)C2 [Example 40, 2-(2-Cyclopropylmethyl-1,2,3,4-tetrahydro-isoquinolin-5-ylamino)-N-(2-dimethylamino-ethyl)-N-(2-o-tolyl-ethyl)-acetamide]",44
13,"O=C(CNc1cccc2c1CCN(CC1CC1)C2)N(CCN1CCCC1)Cc1ccccc1 [Example 41, N-Benzyl-2-(2-cyclopropylmethyl-1,2,3,4-tetrahydro-isoquinolin-5-ylamino)-N-(2-pyrrolidin-1-yl-ethyl)-acetamide]",5
14,"O=C(CNc1cccc2c1CCN(CC1CC1)C2)N(CCN1CCCC1)Cc1ccccc1Cl [Example 43, N-(2-Chloro-benzyl)-2-(2-cyclopropylmethyl-1,2,3,4-tetrahydro-isoquinolin-5-ylamino)-N-(2-pyrrolidin-1-yl-ethyl)-acetamide]",2
15,"O=C(CNc1cccc2c1CCN(CC1CC1)C2)N(CCN1CCCC1)Cc1ccccc1F [Example 44, 2-(2-Cyclopropylmethyl-1,2,3,4-tetrahydro-isoquinolin-5-ylamino)-N-(2-fluoro-benzyl)-N-(2-pyrrolidin-1-yl-ethyl)-acetamide]",3
16,"C/C(=C\c1ccccc1)CN(CCN(C)C)C(=O)CNc1cccc2c1CCN(CC1CC1)C2 [Example 45, 2-(2-Cyclopropylmethyl-1,2,3,4-tetrahydro-isoquinolin-5-ylamino)-N-(2-dimethylamino-ethyl)-N-((E)-2-methyl-3-phenyl-allyl)-acetamide]",8
